One data set concerns the target Cytochrome P450 2C9 (Homo sapiens, UniProt P11712). Description: Inhibition of CYP2C9 in human liver microsomes using diclofenac substrate. It is filed as ADME, Microsome. On the technique in general: Liver microsomes are a subcellular fraction often used to study metabolism.
The target in a further data set is T1, Cytochrome P450 2C8 (Homo sapiens, UniProt P10632).
T1 sequence (P10632 whole entry): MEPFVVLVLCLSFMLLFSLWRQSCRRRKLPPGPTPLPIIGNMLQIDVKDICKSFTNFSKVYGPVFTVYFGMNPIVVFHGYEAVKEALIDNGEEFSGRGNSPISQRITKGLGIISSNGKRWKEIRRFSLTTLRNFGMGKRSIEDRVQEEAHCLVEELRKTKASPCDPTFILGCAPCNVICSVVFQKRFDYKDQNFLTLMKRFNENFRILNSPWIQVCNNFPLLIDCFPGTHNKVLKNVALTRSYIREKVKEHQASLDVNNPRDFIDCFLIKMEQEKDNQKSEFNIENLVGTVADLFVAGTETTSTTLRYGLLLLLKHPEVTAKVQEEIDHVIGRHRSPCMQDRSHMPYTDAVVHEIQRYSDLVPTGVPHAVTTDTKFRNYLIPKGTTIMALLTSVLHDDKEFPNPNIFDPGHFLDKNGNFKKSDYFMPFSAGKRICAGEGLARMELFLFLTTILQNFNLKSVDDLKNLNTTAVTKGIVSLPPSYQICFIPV
The data set can be described thus: Inhibition of CYP2C8 in human liver microsomes using montelukast substrate. It is filed as ADME, Microsome.

Data set [1] is described as follows: Oral bioavailability in C57BL/6 mouse at 2 mg/kg. It is filed as ADME, organism-based. As to conditions: in vivo.
In the next data set the test system is Adipocyte. The data set can be described thus: Inhibition of lipolysis in IBMX-stimulated human adipocytes assessed as glycerol release after 5 hrs. It is filed as functional, cell-based.
Data set [2] can be described thus: Volume of distribution at steady state in C57BL/6 mouse at 1 mg/kg, iv or 2 mg/kg, po. It is filed as ADME, organism-based. To be noted: in vivo, read-out: Vdss.
Data set [3] can be described thus: Half life in C57BL/6 mouse at 1 mg/kg, iv or 2 mg/kg, po. The class given is ADME, organism-based. To be noted: in vivo.
The nature of data set [4]: Plasma clearance in C57BL/6 mouse at 1 mg/kg, iv or 2 mg/kg, po. The class given is ADME, organism-based.
Data set [5] in a line: Cmax in C57BL/6 mouse at 2 mg/kg, po. The class given is ADME, organism-based. More on the design: dose 2 mg/kg, route oral. As to conditions: in vivo.
Data set [6] relates to Rattus norvegicus. The data set can be described thus: Plasma concentration in Sprague-Dawley rat at 1 mg/kg, sc. To be noted: read-out: Cp, in vivo.
The test system of data set [7] is Rattus norvegicus. The data set can be described thus: Reduction in free fatty acid level in 18 hrs fasted po dosed Sprague-Dawley rat. It is filed as functional, organism-based.
Data set [8] concerns Rattus norvegicus. Description: Toxicity in Sprague-Dawley rat assessed as plasma concentration at threshold dose for vasodilation at 1 mg/kg, sc. To be noted: read-out: Activity, in vivo.
Data set [9] deals with Rattus norvegicus. The data set can be described thus: Reduction in free fatty acid level in 18 hrs fasted Sprague-Dawley rat at 100 mg/kg, po. It is filed as functional, organism-based. More on the design: dose 100 mg/kg.
Data set [10] relates to Rattus norvegicus. The data set can be described thus: Toxicity in Sprague-Dawley rat assessed as induction of intense flushing by measuring blood perfusion change by Doppler flometry at 100 mg/kg, sc. It is filed as organism-based. Also on record: dose 100 mg/kg, route subcutaneous. As to conditions: in vivo.
Data set [11] deals with Rattus norvegicus. Description: Toxicity in Sprague-Dawley rat assessed as plasma concentration at threshold dose for vasodilation at 100 mg/kg, sc. As to conditions: in vivo, read-out: Activity. It is filed as organism-based. More on the design: dose 100 mg/kg, route subcutaneous.
Data set [12] concerns Rattus norvegicus. The data set can be described thus: Plasma concentration in Sprague-Dawley rat at 100 mg/kg, sc. It is filed as ADME, organism-based. Also on record: dose 100 mg/kg, route subcutaneous. To be noted: in vivo.
In data set [13] the target is Hydroxycarboxylic acid receptor 2 (Rattus norvegicus, UniProt Q80Z39). The data set can be described thus: Agonist activity at rat GPR109A expressed by [35S]GTPgammaS binding assay. It is filed as functional. A general note: GTPγS is a poorly hydrolysed GTP analogue; its binding reports G protein activation.
Data set [14] in a line: Therapeutic index, ratio of plasma concentration at threshold dose for vasodilation to IC50 for free fatty acid reduction in Sprague-Dawley rat. It is filed as cell-free. To be noted: read-out: TI.

The results in this text go back to ChEMBL document CHEMBL1154005 (J Med Chem, 2009).

The source made the active and inactive calls. Some results are limits rather than exact numbers.

Sequence of Cytochrome P450 2C9 (P11712 whole entry): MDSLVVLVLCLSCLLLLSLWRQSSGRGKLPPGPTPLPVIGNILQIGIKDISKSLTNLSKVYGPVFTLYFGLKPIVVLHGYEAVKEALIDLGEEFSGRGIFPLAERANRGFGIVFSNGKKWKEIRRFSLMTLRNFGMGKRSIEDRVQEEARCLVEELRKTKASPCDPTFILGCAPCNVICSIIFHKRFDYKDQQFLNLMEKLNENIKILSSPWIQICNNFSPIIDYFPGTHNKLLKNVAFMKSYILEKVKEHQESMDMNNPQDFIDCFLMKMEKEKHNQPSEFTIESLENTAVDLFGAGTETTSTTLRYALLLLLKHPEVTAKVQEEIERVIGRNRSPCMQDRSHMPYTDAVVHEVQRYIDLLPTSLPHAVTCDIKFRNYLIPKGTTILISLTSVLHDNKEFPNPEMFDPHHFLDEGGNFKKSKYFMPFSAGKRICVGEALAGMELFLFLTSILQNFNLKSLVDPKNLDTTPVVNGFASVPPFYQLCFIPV
Sequence of Hydroxycarboxylic acid receptor 2 (Q80Z39 whole entry): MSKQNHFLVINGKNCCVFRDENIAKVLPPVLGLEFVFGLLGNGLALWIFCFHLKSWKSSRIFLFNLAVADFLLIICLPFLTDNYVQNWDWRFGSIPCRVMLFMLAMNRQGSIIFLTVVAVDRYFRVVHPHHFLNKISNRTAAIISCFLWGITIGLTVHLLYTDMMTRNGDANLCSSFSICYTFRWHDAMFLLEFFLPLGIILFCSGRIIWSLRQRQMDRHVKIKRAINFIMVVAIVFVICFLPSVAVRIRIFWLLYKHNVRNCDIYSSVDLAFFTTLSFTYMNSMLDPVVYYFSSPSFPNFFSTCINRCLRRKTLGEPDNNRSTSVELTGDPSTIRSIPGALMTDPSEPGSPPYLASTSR

The term IC50 denotes the concentration that gives 50% inhibition. On to `O=C(CCc1noc2c1Cc1cc(O)ccc1-2)Nc1ccccc1C(=O)O`, for which the half-maximal inhibitory concentration (IC50) turned out to be 8.5 µM against Cytochrome P450 2C9 and 20 µM on Cytochrome P450 2C8.

In general, bioavailability refers to dose-corrected exposure relative to a reference, in per cent. A word on the half-life: it is the time needed for the level to fall by half in the phase considered. A higher half-life goes with slow loss. What is called Cmax is the highest concentration seen after dosing. Regarding `O=C(CCc1cn2c(n1)sc1cc(O)ccc12)NC1=C(C(=O)O)CCCC1`, the bioavailability in [1] is 25%. Also, the IC50 against Cytochrome P450 2C9 was found to be 12 µM; in the data set with Adipocyte, 2.6 µM. In addition, the Vd in data set [2] was 0.32 L/kg. The compound also had a half-life in data set [3] of 4.4 h. The same compound gave a clearance in [4] of 0.9 mL/min/kg. This compound also yielded a Cmax in [5] of 3800 nM.

Take `O=C(CCc1[nH]nc2c1ccc1cc(O)ccc12)Nc1ccccc1C(=O)O`: the IC50 is 9.2 µM on Cytochrome P450 2C9, 5.8 µM against Cytochrome P450 2C8 and 0.06 µM with Adipocyte.

The compound `O=C(CCc1noc2c1CCc1cc(O)ccc1-2)Nc1ccccc1C(=O)O` had a bioavailability in [1] of 8.2%. For the same compound, the half-inhibitory concentration (IC50) on Cytochrome P450 2C9 was 2.2 µM; against Cytochrome P450 2C8, 5.9 µM. Besides, in data set [2], the Vd worked out at 1.1 L/kg. In [3], this compound showed a half-life of 1.8 h. The clearance in data set [4] was 9.7 mL/min/kg. This compound returned a Cmax in data set [5] of 620 nM.

As for `O=C(CCc1noc2c1ccc1cc(O)ccc12)Nc1ccccc1C(=O)O`, the results for the IC50 at Cytochrome P450 2C9 and in the data set with Adipocyte were 0.99 µM and 0.15 µM, respectively.

Regarding `O=C(CCc1cn2c(n1)sc1cc(O)ccc12)NC1=C(C(=O)O)CCC1`, the midpoint of inhibition against Cytochrome P450 2C9, the IC50, lay at 12 µM.

On Cytochrome P450 2C9, `O=C(CCc1cn2c(n1)sc1ccccc12)Nc1ccccc1C(=O)O` yielded an IC50 of 4.4 µM.

For the compound `O=C(CCc1cnn2c1ccc1cc(O)ccc12)NC1=C(C(=O)O)CCCC1`, the 50% inhibitory concentration (IC50) on Cytochrome P450 2C9 was 19 µM; with Adipocyte, 0.06 µM.

In turn, `Cn1nc(CCC(=O)Nc2ccccc2C(=O)O)c2c1-c1ccc(O)cc1CC2` had an IC50 against Cytochrome P450 2C9 of 17 µM.

Compound `O=C(CCc1ccc2c(ccc3[nH]ncc32)c1)Nc1ccccc1C(=O)O` yielded a bioavailability in data set [1] of 24%. Moreover, on Cytochrome P450 2C9, the concentration for half-maximal inhibition (IC50) was under 0.14 µM. Moreover, in data set [2], the Vd is 0.19 L/kg. This compound had a half-life in data set [3] of 3.5 h. Also, the clearance in data set [4] was 0.6 mL/min/kg. The same compound yielded a Cmax in data set [5] of 3900 nM.

Consider `O=C(CCc1cn2c(n1)sc1cc(O)ccc12)Nc1ccccc1C(=O)O`, for which the IC50 in the data set with Adipocyte amounted to 0.2 µM.

`O=C(CCc1noc2c1ccc1c(F)c(O)ccc12)NC1=C(C(=O)O)CCCC1` showed an IC50 on Cytochrome P450 2C9 of 2 µM.

In turn, `O=C(CCc1noc2c1CCc1cc(O)ccc1-2)NC1=C(C(=O)O)CCC1` gave a bioavailability in data set [1] of 7.5%. Besides, the IC50 against Cytochrome P450 2C9 and at Cytochrome P450 2C8 was 47 µM each time. Besides, in data set [2], the Vd turned out to be 0.2 L/kg. This compound had a half-life in [3] of 1.9 h. The clearance in [4] was found to be 4.1 mL/min/kg. This compound also came in with a Cmax in data set [5] of 1830 nM.

In data set [1], `Cn1c(=O)c2cc(O)ccc2c2ccc(CCC(=O)Nc3ccccc3C(=O)O)cc21` gave a bioavailability of 10%. The compound also displayed an IC50 at Cytochrome P450 2C9 of 4.7 µM. Further, the Vd in [2] came out at 0.26 L/kg. In data set [3], the half-life is 2.3 h. Moreover, in data set [4], the clearance amounted to 1.4 mL/min/kg. The Cmax in data set [5] was 1260 nM.

As for `O=C(CCc1noc2c1ccc1c(Cl)c(O)ccc12)NC1=C(C(=O)O)CCCC1`, it took 1.5 µM to reach half-maximal inhibition at Cytochrome P450 2C9 (IC50).

Take `O=C(CCc1[nH]nc2c1CCc1cc(O)ccc1-2)Nc1ccccc1C(=O)O`: the bioavailability in data set [1] was determined as 1.4%. In addition, the IC50 against Cytochrome P450 2C9 is 26 µM; on Cytochrome P450 2C8, 23 µM; with Adipocyte, 0.28 µM. The Vd in data set [2] worked out at 0.44 L/kg. In [3], this compound had a half-life of 2.1 h. The same compound came in with a clearance in data set [4] of 2.4 mL/min/kg. This compound also returned a Cmax in [5] of 73 nM.

Turning to `O=C(O)c1cccnc1` [NIACIN], the concentration in the data set with Rattus norvegicus [6] and with Rattus norvegicus [8] was 7600 nM each time. Also, the IC50 with Rattus norvegicus [7] was determined as 5 µM; in the data set with Adipocyte, 0.07 µM.

Take `O=C(CCc1noc2c1CCc1cc(O)ccc1-2)NC1=C(C(=O)O)CCCC1`: the results for the IC50 against Cytochrome P450 2C9 and on Cytochrome P450 2C8 were 11 µM and 44 µM, respectively.

What is called EC50 is the concentration giving half of the maximal effect. A lower EC50 goes with an effect from little substance. As for `O=C(CCc1cnn2c1CCc1cc(O)ccc1-2)Nc1ccccc1C(=O)O`, in the data set on Rattus norvegicus [9], the outcome was Active. In addition, the bioavailability in [1] is 17%. Further, in the data set on Rattus norvegicus [10], the Activity entry is listed as “Not Active”. In addition, the IC50 stood at 18 µM against Cytochrome P450 2C9, 11 µM at Cytochrome P450 2C8, 60 µM in the data set on Rattus norvegicus [7] and 0.11 µM with Adipocyte. For the same compound, the concentration in the data set on Rattus norvegicus [11] and in the data set with Rattus norvegicus [12] was 500000 nM in each case. The Vd in data set [2] was found to be 1.8 L/kg. The half-life in [3] is 2.9 h. The compound also came in with a half-maximal effective concentration (EC50) in data set [13] of 2.7 µM. This compound returned a clearance in data set [4] of 12 mL/min/kg. In addition, in data set [14], the selectivity ratio amounted to 8. The compound further gave a Cmax in data set [5] of 350 nM.

In turn, `O=C(CCc1noc2c1ccc1cc(O)ccc12)NC1=C(C(=O)O)CCCC1` yielded an IC50 on Cytochrome P450 2C9 of 12 µM.

Compound `O=C(CCc1nnn2c1ccc1cc(O)ccc12)Nc1ccccc1C(=O)O` showed a bioavailability in [1] of 6%. In addition, the IC50 was found to be 1.5 µM on Cytochrome P450 2C9 and 0.02 µM in the data set on Adipocyte. Besides, the Vd in data set [2] stood at 0.95 L/kg. In [3], the half-life is 1.7 h. For the same compound, in data set [4], the clearance was determined as 7 mL/min/kg. Also, the highest level in data set [5] (Cmax) was 170 nM.
